Experimental data from patent US9776962B2, “Aromatic compounds with GPR40 agonistic activity” (TAKEDA PHARMACEUTICAL COMPANY LIMITED, priority 2013, dated 2017).

These compounds were tested against T1, human GPR40 (Homo sapiens, UniProt O14842) (assay: Evaluation of human GPR40 agonist activity with increase in intracellular Ca2+ concentration as an index (FLIPR)). Conditions: test compound 1 μM; CHO(dhfr−) cells stably expressing human GPR40; 100% = 10 μM compound of Example 153, 0% = DMSO.
T1 construct: expressed in transfected cells
T1 sequence (O14842 whole entry): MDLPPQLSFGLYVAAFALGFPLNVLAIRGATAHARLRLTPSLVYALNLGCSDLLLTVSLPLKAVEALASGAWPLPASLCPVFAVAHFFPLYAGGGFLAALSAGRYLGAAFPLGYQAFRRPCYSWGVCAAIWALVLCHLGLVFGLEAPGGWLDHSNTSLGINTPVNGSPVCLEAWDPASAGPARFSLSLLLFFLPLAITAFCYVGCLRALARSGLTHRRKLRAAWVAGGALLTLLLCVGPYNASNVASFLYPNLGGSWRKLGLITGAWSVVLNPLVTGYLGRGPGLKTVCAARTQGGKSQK
Assay type: cell-based
In short: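 CHO(dhfr−) cells stably expressing full-length human GPR40 were loaded with Ca2+ probe for 1 h at room temperature, then given test compound at 1 μM final. Fluorescence was followed on FLIPR, with activity scaled to a reference agonist at 10 μM (100%) and DMSO (0%).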

First: COc1ccc(C(=O)N(CC2(C)CC2)c2ccccn2)c(N2CCC(COc3cc(C(CC(=O)O)C4CC4)ccn3)CC2)c1 (stereo not shown) [Example 114, 3-cyclopropyl-3-(2-((1-(5-methoxy-2-(((1-methylcyclopropyl)methyl)(pyridin-2-yl)carbamoyl)phenyl)piperidin-4-yl)methoxy)pyridin-4-yl)propanoic acid]
Second: COc1ccc(C(=O)N(CC2(F)CCC2)c2ccccn2)c(N2CCC(COc3cc(C(CC(=O)O)C4CC4)ccn3)CC2)c1 (stereo not shown) [Example 154, 3-cyclopropyl-3-(2-((1-(2-(((1-fluorocyclobutyl)methyl)(pyridin-2-yl)carbamoyl)-5-methoxyphenyl)piperidin-4-yl)methoxy)pyridin-4-yl)propanoic acid]
The activation at 1 µM of the first is lower: 98% for the first, 100% for the second.

Compared with `COc1ccc(C(=O)N2CCOCC2c2ccccc2)c(N2CCC(COc3cc(C(CC(=O)O)C4CC4)ccn3)CC2)c1` (stereo not shown) [Example 200, 3-cyclopropyl-3-(2-((1-(5-methoxy-2-((3-phenylmorpholin-4-yl)carbonyl)phenyl)piperidin-4-yl)methoxy)pyridin-4-yl)propanoic acid], `COc1ccc(C(=O)N2CCOc3ccccc32)c(N2CCC(COc3cc(C(CC(=O)O)C4CC4)ccn3)CC2)c1` (stereo not shown) [Example 199, 3-cyclopropyl-3-(2-((1-(2-(2,3-dihydro-4H-1,4-benzoxazin-4-ylcarbonyl)-5-methoxyphenyl)piperidin-4-yl)methoxy)pyridin-4-yl)propanoic acid] is higher in activation at 1 µM: 89% for the first, 93% for the second.

Going from `CSc1ccc(C(=O)N(CC(C)(C)C)c2cccc(C)n2)c(N2CCC(COc3cc(C(CC(=O)O)C4CC4)ccn3)CC2)c1` (stereo not shown) [Example 262, 3-cyclopropyl-3-(2-((1-(2-((2,2-dimethylpropyl)(6-methylpyridin-2-yl)carbamoyl)-5-(methylsulfanyl)phenyl)piperidin-4-yl)methoxy)pyridin-4-yl)propanoic acid] to `Cc1cccc(N(CC(C)(C)C)C(=O)c2ccc(C#N)cc2N2CCC(COc3cc(C(CC(=O)O)C4CC4)ccn3)CC2)n1` (stereo not shown) [Example 260, 3-(2-((1-(5-cyano-2-((2,2-dimethylpropyl)(6-methylpyridin-2-yl)carbamoyl)phenyl)piperidin-4-yl)methoxy)pyridin-4-yl)-3-cyclopropylpropanoic acid], the activation at 1 µM falls from 90% to 89%.

First: COc1ccc(C(=O)N(CC(C)(C)C)c2ccnc(C)n2)c(N2CCC(COc3cc(C(CC(=O)O)C4CC4)ccn3)CC2)c1 (stereo not shown) [Example 229, 3-cyclopropyl-3-(2-((1-(2-((2,2-dimethylpropyl) (2-methylpyrimidin-4-yl)carbamoyl)-5-methoxyphenyl)piperidin-4-yl)methoxy)pyridin-4-yl)propanoic acid]
Second: COc1ccc(C(=O)N(CC(C)(C)C)c2nc(C)ccc2F)c(N2CCC(COc3cc(C(CC(=O)O)C4CC4)ccn3)CC2)c1 (stereo not shown) [Example 234, 3-cyclopropyl-3-(2-((1-(2-((2,2-dimethylpropyl) (3-fluoro-6-methylpyridin-2-yl)carbamoyl)-5-methoxyphenyl)piperidin-4-yl)methoxy)pyridin-4-yl)propanoic acid]
The activation at 1 µM of the first is higher: 101% for the first, 97% for the second.

Going from `COc1ccc(C(=O)N(CC(C)(C)C)C2CC2)c(N2CCC(COc3cc(C(CC(=O)O)C4CC4)ccn3)CC2)c1` (stereo not shown) [Example 192, 3-cyclopropyl-3-(2-((1-(2-(cyclopropyl(2,2-dimethylpropyl)carbamoyl)-5-methoxyphenyl)piperidin-4-yl)methoxy)pyridin-4-yl)propanoic acid] to `COc1ccc(C(=O)N(CC(C)(C)F)c2ccccn2)c(N2CCC(COc3cc(C(CC(=O)O)C4CC4)ccn3)CC2)c1` (stereo not shown) [Example 120, 3-cyclopropyl-3-(2-((1-(2-((2-fluoro-2-methylpropyl)(pyridin-2-yl)carbamoyl)-5-methoxyphenyl)piperidin-4-yl)methoxy)pyridin-4-yl)propanoic acid], the activation at 1 µM rises from 90% to 100%.

First: COc1ccc(C(=O)N(CC(C)(C)C)c2ccccn2)c(N2CCC(COc3cccc(C(CC(=O)O)C4CC4)c3)CC2)n1 (stereo not shown) [Example 254, 3-cyclopropyl-3-(3-((1-(3-((2,2-dimethylpropyl)(pyridin-2-yl)carbamoyl)-6-methoxypyridin-2-yl)piperidin-4-yl)methoxy)phenyl)propanoic acid]
Second: COc1ccc(C(=O)N(CC(C)C)c2ccccn2)c(N2CCC(COc3cccc(C(CC(=O)O)C4CC4)c3)CC2)c1 (stereo not shown) [Example 62, 3-cyclopropyl-3-(3-((1-(5-methoxy-2-((2-methylpropyl)(pyridin-2-yl)carbamoyl)phenyl)piperidin-4-yl)methoxy)phenyl)propanoic acid]
The activation at 1 µM of the first is lower: 74% for the first, 101% for the second.

First: COc1ccc(C(=O)N2CCc3ccccc32)c(N2CCC(COc3cccc(C(CC(=O)O)C4CC4)c3)CC2)c1 (stereo not shown) [Example 4, 3-cyclopropyl-3-(3-((1-(2-(2,3-dihydro-1H-indol-1-ylcarbonyl)-5-methoxyphenyl)piperidin-4-yl)methoxy)phenyl)propanoic acid]
Second: COc1ccc(C(=O)N(CC2CCC2)c2ccccn2)c(N2CCC(COc3cc(C(CC(=O)O)C4CC4)ccn3)CC2)c1 (stereo not shown) [Example 118, 3-(2-((1-(2-((cyclobutylmethyl)(pyridin-2-yl)carbamoyl)-5-methoxyphenyl)piperidin-4-yl)methoxy)pyridin-4-yl)-3-cyclopropylpropanoic acid]
The activation at 1 µM of the first is lower: 97% for the first, 103% for the second.

First: COc1cc(F)c(C(=O)N(CC(C)(C)C)c2cccc(C)n2)c(N2CCC(COc3cc(C(CC(=O)O)C4CC4)ccn3)CC2)c1 (stereo not shown) [Example 251, 3-cyclopropyl-3-(2-((1-(2-((2,2-dimethylpropyl)(6-methylpyridin-2-yl)carbamoyl)-3-fluoro-5-methoxyphenyl)piperidin-4-yl)methoxy)pyridin-4-yl)propanoic acid]
Second: Cc1cccc(N(CC(C)(C)C)C(=O)c2ccc(OC(F)F)cc2N2CCC(COc3cc(C(CC(=O)O)C4CC4)ccn3)CC2)n1 (stereo not shown) [Example 267, 3-cyclopropyl-3-(2-((1-(5-(difluoromethoxy)-2-((2,2-dimethylpropyl)(6-methylpyridin-2-yl)carbamoyl)phenyl)piperidin-4-yl)methoxy)pyridin-4-yl)propanoic acid]
The activation at 1 µM of the first is lower: 91% for the first, 96% for the second.

Going from `COc1ccc(C(=O)N(CC2CC2)c2cc(C)cc(C)n2)c(N2CCC(COc3cc(C(CC(=O)O)C4CC4)ccn3)CC2)c1` (stereo not shown) [Example 244, 3-cyclopropyl-3-(2-((1-(2-((cyclopropylmethyl)(4,6-dimethylpyridin-2-yl)carbamoyl)-5-methoxyphenyl)piperidin-4-yl)methoxy)pyridin-4-yl)propanoic acid] to `COc1ccc(C(=O)N(CC(F)(F)F)c2cccc(C)n2)c(N2CCC(COc3cc(C(CC(=O)O)C4CC4)ccn3)CC2)c1` (stereo not shown) [Example 143, 3-cyclopropyl-3-(2-((1-(5-methoxy-2-((6-methylpyridin-2-yl)(2,2,2-trifluoroethyl)carbamoyl)phenyl)piperidin-4-yl)methoxy)pyridin-4-yl)propanoic acid], the activation at 1 µM rises from 99% to 102%.

First: COc1ccc(C(=O)N(CC(F)(F)F)c2nccc(C)n2)c(N2CCC(COc3cc(C(CC(=O)O)C4CC4)ccn3)CC2)c1 (stereo not shown) [Example 169, 3-cyclopropyl-3-(2-((1-(5-methoxy-2-((4-methylpyrimidin-2-yl)(2,2,2-trifluoroethyl)carbamoyl)phenyl)piperidin-4-yl)methoxy)pyridin-4-yl)propanoic acid]
Second: COc1ccc(C(=O)N(c2ccccn2)C(C)C(C)C)c(N2CCC(COc3cc(C(CC(=O)O)C4CC4)ccn3)CC2)c1 (stereo not shown) [Example 121, 3-cyclopropyl-3-(2-((1-(5-methoxy-2-((3-methylbutan-2-yl)(pyridin-2-yl)carbamoyl)phenyl)piperidin-4-yl)methoxy)pyridin-4-yl)propanoic acid]
The activation at 1 µM of the first is higher: 106% for the first, 95% for the second.

Compared with `Cc1cccc(N(CC(C)(C)C)C(=O)c2ccc(S(C)(=O)=O)cc2N2CCC(COc3cc(C(CC(=O)O)C4CC4)ccn3)CC2)n1` (stereo not shown) [Example 264, 3-cyclopropyl-3-(2-((1-(2-((2,2-dimethylpropyl)(6-methylpyridin-2-yl)carbamoyl)-5-(methylsulfonyl)phenyl)piperidin-4-yl)methoxy)pyridin-4-yl)propanoic acid], `COc1ccc(C(=O)N(CC(C)(C)C)c2cccc(C)n2)c(N2CCC(COc3cccc(C(CC(=O)O)C4CC4)c3F)CC2)c1` (stereo not shown) [Example 275, 3-cyclopropyl-3-(3-((1-(2-((2-dimethylpropyl)-(6-methylpyridin-2-yl)-carbamoyl)-5-methoxy-phenyl)piperidin-4-yl)methoxy)-2-fluoro-phenyl)propanoic acid] is higher in activation at 1 µM: 52% for the first, 99% for the second.

`COc1ccc(C(=O)N(CC(C)(C)C)c2cccc(C)n2)c(N2CCC(COc3cccc(C(CC(=O)O)OC)c3)CC2)c1` (stereo not shown) [Example 269, 3-(3-((1-(2-((2,2-dimethylpropyl)(6-methylpyridin-2-yl)carbamoyl)-5-methoxyphenyl)piperidin-4-yl)methoxy)phenyl)-3-methoxypropanoic acid] gave an activation at 1 µM of 103%.

Compared with `COc1ccc(C(=O)N(CC2CC2)c2ccccn2)c(N2CCC(COc3cc(C(CC(=O)O)C4CC4)ccn3)CC2)c1` (single isomer, unassigned) [Example 142, 3-cyclopropyl-3-(2-((1-(2-((cyclopropylmethyl)(pyridin-2-yl)carbamoyl)-5-methoxyphenyl)piperidin-4-yl)methoxy)pyridin-4-yl)propanoic acid], `COc1ccc(C(=O)N(c2ccccn2)C2CCN(Cc3ccccc3)CC2)c(N2CCC(COc3cc(C(CC(=O)O)C4CC4)ccn3)CC2)c1` (stereo not shown) [Example 190, 3-(2-((1-(2-((1-benzylpiperidin-4-yl)(pyridin-2-yl)carbamoyl)-5-methoxyphenyl)piperidin-4-yl)methoxy)pyridin-4-yl)-3-cyclopropylpropanoic acid] is lower in “Activity (human GPR40 agonist activity)” value: 97% for the first, 66% for the second.
